According to article PMC5218480 (PLoS ONE, 2017):

System: MV-4-11 cells
Assay: Gene expression microarray analysis (Affymetrix PrimeView) and GSEA
Format: cell-based, human
Design: RFU PODN (11730768_x_at) / Fold change /veh PODN (11730768_x_at) / RFU LINC00158 (11744669_a_at) / Fold change /veh LINC00158 (11744669_a_at) / RFU DUSP10 (11751237_a_at) / Fold change /veh DUSP10 (11751237_a_at) / RFU ID3 (11757404_x_at) / Fold change /veh ID3 (11757404_x_at) / RFU PLEKHG5 (11737974_s_at) / Fold change /veh PLEKHG5 (11737974_s_at) / RFU LRRC4B (11730491_at) / Fold change /veh LRRC4B (11730491_at) / RFU GIMAP4 (11747438_a_at) / Fold change /veh GIMAP4 (11747438_a_at) / RFU KRT8 (11758183_x_at) / Fold change /veh KRT8 (11758183_x_at) / RFU CNN1 (11734310_a_at) / Fold change /veh CNN1 (11734310_a_at) / RFU VPS37D (11726825_at) / Fold change /veh VPS37D (11726825_at) / RFU C10orf10 (11716522_x_at) / Fold change /veh C10orf10 (11716522_x_at) / RFU KIR2DL2 /// KIR2DL4 /// KIR2DL5A /// KIR2DL5B /// KIR2DS1 /// KIR2DS2 /// KIR2DS3 /// KIR2DS4 /// KIR3DL3 /// KIR3DL3 /// KIR3DS1 (11738374_at) / Fold change /veh KIR2DL2 /// KIR2DL4 /// KIR2DL5A /// KIR2DL5B /// KIR2DS1 /// KIR2DS2 /// KIR2DS3 /// KIR2DS4 /// KIR3DL3 /// KIR3DL3 /// KIR3DS1 (11738374_at) / RFU C1QL1 (11718748_at) / Fold change /veh C1QL1 (11718748_at) / RFU TMPRSS4 (11747572_a_at) / Fold change /veh TMPRSS4 (11747572_a_at) / RFU HAMP (11756126_x_at) / Fold change /veh HAMP (11756126_x_at) / RFU RNFT2 (11725882_a_at) / Fold change /veh RNFT2 (11725882_a_at) / RFU NR4A2 (11747474_a_at) / Fold change /veh NR4A2 (11747474_a_at) / RFU ABCC12 (11746883_a_at) / Fold change /veh ABCC12 (11746883_a_at) / RFU TMEM136 (11760407_x_at) / Fold change /veh TMEM136 (11760407_x_at) / RFU CLDN22 /// WWC2 (11732394_at) / Fold change /veh CLDN22 /// WWC2 (11732394_at) / RFU HLA-DPB1 (11760878_x_at) / Fold change /veh HLA-DPB1 (11760878_x_at) / RFU SPINT1 (11716480_a_at) / Fold change /veh SPINT1 (11716480_a_at) / RFU GAP43 (11754022_s_at) / Fold change /veh GAP43 (11754022_s_at) / RFU A4GNT (11735810_at) / Fold change /veh A4GNT (11735810_at) / RFU PRB3 (11715151_x_at) / Fold change /veh PRB3 (11715151_x_at) / RFU TUBB4B (11761932_at) / Fold change /veh TUBB4B (11761932_at) / RFU CAPN14 (11732068_a_at) / Fold change /veh CAPN14 (11732068_a_at) / RFU TMCC2 (11721928_a_at) / Fold change /veh TMCC2 (11721928_a_at) / RFU IRGQ (11745062_a_at) / Fold change /veh IRGQ (11745062_a_at) / RFU FAM174B (11720279_a_at) / Fold change /veh FAM174B (11720279_a_at) / RFU TMPRSS4 (11748680_a_at) / Fold change /veh TMPRSS4 (11748680_a_at) / RFU FAM212B (11763350_a_at) / Fold change /veh FAM212B (11763350_a_at) / RFU PLEKHG5 (11743358_a_at) / Fold change /veh PLEKHG5 (11743358_a_at) / RFU ZSCAN30 (11745921_a_at) / Fold change /veh ZSCAN30 (11745921_a_at) / RFU CMKLR1 (11741424_a_at) / Fold change /veh CMKLR1 (11741424_a_at) / RFU LOC101060620 /// MAPK8IP1 (11723275_at) / Fold change /veh LOC101060620 /// MAPK8IP1 (11723275_at) / RFU SPTSSB (11747773_x_at) / Fold change /veh SPTSSB (11747773_x_at) / RFU PRSS12 (11739890_at) / Fold change /veh PRSS12 (11739890_at) / RFU BIN1 (11741810_x_at) / Fold change /veh BIN1 (11741810_x_at) / RFU WNT11 (11732464_a_at) / Fold change /veh WNT11 (11732464_a_at) / RFU C10orf10 (11716521_a_at) / Fold change /veh C10orf10 (11716521_a_at) / RFU C5orf56 (11738089_at) / Fold change /veh C5orf56 (11738089_at) / RFU CYB561 (11721691_x_at) / Fold change /veh CYB561 (11721691_x_at) / RFU ANKRD19P (11752326_a_at) / Fold change /veh ANKRD19P (11752326_a_at) / RFU OR2T12 /// OR2T33 /// OR2T8 (11738714_s_at) / Fold change /veh OR2T12 /// OR2T33 /// OR2T8 (11738714_s_at) / RFU VCAN (11748164_a_at) / Fold change /veh VCAN (11748164_a_at) / RFU JSRP1 (11732532_at) / Fold change /veh JSRP1 (11732532_at) / RFU KRTAP10-11 (11738290_x_at) / Fold change /veh KRTAP10-11 (11738290_x_at) / RFU MYO3A (11730013_a_at) / Fold change /veh MYO3A (11730013_a_at) / RFU EBF3 (11725865_a_at) / Fold change /veh EBF3 (11725865_a_at) / RFU CAMK2N1 (11719241_x_at) / Fold change /veh CAMK2N1 (11719241_x_at) / RFU C5orf56 (11738088_a_at) / Fold change /veh C5orf56 (11738088_a_at) / RFU OLFML3 (11715873_a_at) / Fold change /veh OLFML3 (11715873_a_at) / RFU LOC100653217 /// NTM (11731650_a_at) / Fold change /veh LOC100653217 /// NTM (11731650_a_at) / RFU MAPK11 (11762145_a_at) / Fold change /veh MAPK11 (11762145_a_at) / RFU FIZ1 (11724087_x_at) / Fold change /veh FIZ1 (11724087_x_at) / RFU OASL (11726364_x_at) / Fold change /veh OASL (11726364_x_at) / RFU SOX15 (11748057_x_at) / Fold change /veh SOX15 (11748057_x_at) / RFU CD79A (11719716_a_at) / Fold change /veh CD79A (11719716_a_at) / RFU HIST1H1D (11736915_at) / Fold change /veh HIST1H1D (11736915_at) / RFU CASKIN2 (11723855_a_at) / Fold change /veh CASKIN2 (11723855_a_at) / RFU LOC730098 (11760151_x_at) / Fold change /veh LOC730098 (11760151_x_at) / RFU OR4N2 (11742367_at) / Fold change /veh OR4N2 (11742367_at) / RFU PRRT2 (11749266_a_at) / Fold change /veh PRRT2 (11749266_a_at) / RFU SNX32 (11753110_a_at) / Fold change /veh SNX32 (11753110_a_at) / RFU CDHR5 (11726645_a_at) / Fold change /veh CDHR5 (11726645_a_at) / RFU RCAN1 (11760418_a_at) / Fold change /veh RCAN1 (11760418_a_at) / RFU FAM167A (11723789_a_at) / Fold change /veh FAM167A (11723789_a_at) / RFU FAM26E (11764081_at) / Fold change /veh FAM26E (11764081_at) / RFU ISYNA1 (11749810_s_at) / Fold change /veh ISYNA1 (11749810_s_at) / RFU ACY1 (11761880_at) / Fold change /veh ACY1 (11761880_at) / RFU 11764098_at / Fold change /veh 11764098_at / RFU SAMD14 (11745864_x_at) / Fold change /veh SAMD14 (11745864_x_at) / RFU NPB (11741838_a_at) / Fold change /veh NPB (11741838_a_at) / RFU TMPRSS6 (11731388_a_at) / Fold change /veh TMPRSS6 (11731388_a_at) / RFU KRTAP10-2 (11738614_at) / Fold change /veh KRTAP10-2 (11738614_at) / RFU ARHGAP8 /// PRR5-ARHGAP8 (11727945_x_at) / Fold change /veh ARHGAP8 /// PRR5-ARHGAP8 (11727945_x_at) / RFU KRTAP5-7 /// NADSYN1 (11734609_at) / Fold change /veh KRTAP5-7 /// NADSYN1 (11734609_at) / RFU RASL12 (11751679_a_at) / Fold change /veh RASL12 (11751679_a_at) / RFU CDKN2B (11736163_a_at) / Fold change /veh CDKN2B (11736163_a_at) / RFU PRF1 (11729649_at) / Fold change /veh PRF1 (11729649_at) / RFU, ZNF638 /// ZNF638-IT1 / Fold change vs veh, ZNF638 /// ZNF638-IT1 / RFU, PANK3 / Fold change vs veh, PANK3 / RFU, SH3YL1 / Fold change vs veh, SH3YL1 / RFU, ZEB2 / Fold change vs veh, ZEB2 / RFU, NRIP1 / Fold change vs veh, NRIP1 / RFU, PTTG1IP / Fold change vs veh, PTTG1IP / RFU, CAPN2 / Fold change vs veh, CAPN2 / RFU, MED14 / Fold change vs veh, MED14 / RFU, SNORA58 / Fold change vs veh, SNORA58 / RFU, C1orf63 / Fold change vs veh, C1orf63 / RFU, LRRFIP1 / Fold change vs veh, LRRFIP1 / RFU, NDUFAF7 / Fold change vs veh, NDUFAF7 / RFU, SLC12A2 / Fold change vs veh, SLC12A2 / RFU, IBTK / Fold change vs veh, IBTK / RFU, ESF1 / Fold change vs veh, ESF1 / Fold change vs veh, TMEM50B / RFU, TAOK1 / Fold change vs veh, TAOK1 / RFU, ACBD3 / Fold change vs veh, ACBD3 / RFU, TMA16 / Fold change vs veh, TMA16 / RFU, RWDD3 / Fold change vs veh, RWDD3 / RFU, BCAT1 / Fold change vs veh, BCAT1 / RFU, EDEM3 / Fold change vs veh, EDEM3 / RFU, TMEM33 / Fold change vs veh, TMEM33 / RFU, WDR75 / Fold change vs veh, WDR75 / RFU, AHCTF1 / Fold change vs veh, AHCTF1 / RFU, TFRC / Fold change vs veh, TFRC / RFU, ZDHHC17 / Fold change vs veh, ZDHHC17 / RFU, NOM1 / Fold change vs veh, NOM1 / RFU, ARL8B / Fold change vs veh, ARL8B / RFU, ZBTB11 / Fold change vs veh, ZBTB11 / RFU, TAMM41 / Fold change vs veh, TAMM41 / RFU, KIAA1704 /// LOC100996395 / Fold change vs veh, KIAA1704 /// LOC100996395 / RFU, ING1 / Fold change vs veh, ING1 / RFU, TRMT61B / Fold change vs veh, TRMT61B / RFU, FUBP3 / Fold change vs veh, FUBP3 / RFU, TP53 / Fold change vs veh, TP53 / RFU, TNKS2 / Fold change vs veh, TNKS2 / RFU, ZFP14 / Fold change vs veh, ZFP14 / RFU, ACTR2 / Fold change vs veh, ACTR2 / RFU, PPP3R1 / Fold change vs veh, PPP3R1 / RFU, PIK3R1 / Fold change vs veh, PIK3R1 / RFU, HNRNPA1 / Fold change vs veh, HNRNPA1 / RFU, RNF170 / Fold change vs veh, RNF170 / RFU, ZNF28 / Fold change vs veh, ZNF28 / RFU, RNGTT / Fold change vs veh, RNGTT / RFU, OGT / Fold change vs veh, OGT / RFU, BRD1 / Fold change vs veh, BRD1 / RFU, MARS / Fold change vs veh, MARS / RFU, ZNF655 / Fold change vs veh, ZNF655 / RFU, FAHD1 / Fold change vs veh, FAHD1 / RFU, BDP1 / Fold change vs veh, BDP1 / RFU, LRRCC1 / Fold change vs veh, LRRCC1 / RFU, ARID1A / Fold change vs veh, ARID1A / RFU, ZNF146 / Fold change vs veh, ZNF146 / RFU, ZNF330 / Fold change vs veh, ZNF330 / RFU, GPN3 / Fold change vs veh, GPN3 / RFU, C9orf123 / Fold change vs veh, C9orf123 / RFU, N4BP2L2 / Fold change vs veh, N4BP2L2 / RFU, ARFIP1 / Fold change vs veh, ARFIP1 / RFU, FAM179B / Fold change vs veh, FAM179B / RFU, BCL10 / Fold change vs veh, BCL10 / RFU, UHRF1BP1L / Fold change vs veh, UHRF1BP1L / RFU, BET1 / Fold change vs veh, BET1 / RFU, CNOT2 / Fold change vs veh, CNOT2 / RFU, ZNF268 / Fold change vs veh, ZNF268 / Fold change vs veh, ZNF507 / RFU, DGCR2 / Fold change vs veh, DGCR2 / RFU, WDSUB1 / Fold change vs veh, WDSUB1 / Fold change vs veh, HSP90B1 /// MIR3652 / RFU, ADSS / Fold change vs veh, ADSS / RFU, GK / Fold change vs veh, GK / RFU, ZNF148 / Fold change vs veh, ZNF148 / RFU, TAF9 / Fold change vs veh, TAF9 / RFU, SLC1A5 / Fold change vs veh, SLC1A5 / RFU, SLMO2 / Fold change vs veh, SLMO2 / RFU, ABCC4 / Fold change vs veh, ABCC4 / RFU, LOC101060439 /// RAP1B / Fold change vs veh, LOC101060439 /// RAP1B / RFU, RFX7 / Fold change vs veh, RFX7 / RFU, GTPBP10 / Fold change vs veh, GTPBP10 / RFU, CNEP1R1 / Fold change vs veh, CNEP1R1 / RFU, BIVM-ERCC5 /// ERCC5 / Fold change vs veh, BIVM-ERCC5 /// ERCC5 / RFU, ILF3 / Fold change vs veh, ILF3 / RFU 11762660_at / Fold change /veh 11762660_at / RFU VCAN (11757783_s_at) / Fold change /veh VCAN (11757783_s_at) / RFU DDX43 (11728927_at) / Fold change /veh DDX43 (11728927_at) / RFU KRT8 (11758188_x_at) / Fold change /veh KRT8 (11758188_x_at) / RFU NKD1 (11759106_at) / Fold change /veh NKD1 (11759106_at) / RFU SRD5A1 (11742802_a_at) / Fold change /veh SRD5A1 (11742802_a_at) / RFU TPSAB1 /// TPSB2 (11721975_s_at) / Fold change /veh TPSAB1 /// TPSB2 (11721975_s_at) / RFU GSTM3 (11746129_a_at) / Fold change /veh GSTM3 (11746129_a_at) / RFU IL23R (11737362_x_at) / Fold change /veh IL23R (11737362_x_at) / RFU TMEM51 (11727254_a_at) / Fold change /veh TMEM51 (11727254_a_at) / RFU PIWIL2 (11732686_x_at) / Fold change /veh PIWIL2 (11732686_x_at) / RFU ORM1 (11744905_x_at) / Fold change /veh ORM1 (11744905_x_at) / RFU CCDC152 (11743942_at) / Fold change /veh CCDC152 (11743942_at) / RFU ECM1 (11717891_a_at) / Fold change /veh ECM1 (11717891_a_at) / RFU IL23R (11748794_a_at) / Fold change /veh IL23R (11748794_a_at) / RFU TNFAIP8L3 (11732012_x_at) / Fold change /veh TNFAIP8L3 (11732012_x_at) / RFU MBOAT4 (11741988_at) / Fold change /veh MBOAT4 (11741988_at) / RFU 11764193_at / Fold change /veh 11764193_at / RFU TMEM53 (11763286_at) / Fold change /veh TMEM53 (11763286_at) / RFU MAGEB2 (11727129_at) / Fold change /veh MAGEB2 (11727129_at) / RFU TMEM200A (11744735_a_at) / Fold change /veh TMEM200A (11744735_a_at) / RFU CCDC152 (11751479_a_at) / Fold change /veh CCDC152 (11751479_a_at) / RFU FAM211A (11726209_a_at) / Fold change /veh FAM211A (11726209_a_at) / RFU RGS16 (11746705_a_at) / Fold change /veh RGS16 (11746705_a_at) / RFU VCAN (11755009_s_at) / Fold change /veh VCAN (11755009_s_at) / RFU RHOB (11743442_s_at) / Fold change /veh RHOB (11743442_s_at) / RFU RGS16 (11720943_a_at) / Fold change /veh RGS16 (11720943_a_at) / RFU RGS16 (11720944_at) / Fold change /veh RGS16 (11720944_at) / RFU, VPS4B / Fold change vs veh, VPS4B / RFU, CREB1 / Fold change vs veh, CREB1 / RFU, DNAJC13 / Fold change vs veh, DNAJC13 / RFU, GNAQ / Fold change vs veh, GNAQ / RFU, CDK5R1 / Fold change vs veh, CDK5R1 / RFU, ZRANB3 / Fold change vs veh, ZRANB3 / RFU, CUL4A / Fold change vs veh, CUL4A / RFU, CCNY / Fold change vs veh, CCNY / RFU, UFL1 / Fold change vs veh, UFL1 / RFU, COG3 / Fold change vs veh, COG3 / RFU, DIAPH2 / Fold change vs veh, DIAPH2 / RFU, SKA2 / Fold change vs veh, SKA2 / RFU, AFF3 / Fold change vs veh, AFF3 / RFU, LMF1 / Fold change vs veh, LMF1 / RFU, IPO11 / Fold change vs veh, IPO11 / RFU, DFFB / Fold change vs veh, DFFB / RFU, FOXP1 / Fold change vs veh, FOXP1 / RFU, CARD8 / Fold change vs veh, CARD8 / RFU, STRN3 / Fold change vs veh, STRN3 / RFU, ADK / Fold change vs veh, ADK / RFU, RASSF2 / Fold change vs veh, RASSF2 / RFU, WIPF1 / Fold change vs veh, WIPF1 / RFU, LARP1B / Fold change vs veh, LARP1B / RFU, RASA1 / Fold change vs veh, RASA1 / RFU, RB1 / Fold change vs veh, RB1 / RFU, PPFIA1 / Fold change vs veh, PPFIA1 / RFU, MAT2A / Fold change vs veh, MAT2A / RFU, CCT5 / Fold change vs veh, CCT5 / RFU, WDR92 / Fold change vs veh, WDR92 / RFU, CUX1 / Fold change vs veh, CUX1 / RFU, TTC7A / Fold change vs veh, TTC7A / RFU, TMEM135 / Fold change vs veh, TMEM135 / RFU, DEPTOR / Fold change vs veh, DEPTOR / RFU, CPM / Fold change vs veh, CPM / RFU, DNAJB6 / Fold change vs veh, DNAJB6 / RFU, CACNA2D3 / Fold change vs veh, CACNA2D3 / RFU, DTX4 / Fold change vs veh, DTX4 / RFU, TFCP2 / Fold change vs veh, TFCP2 / RFU, GMCL1 /// GMCL1P1 / Fold change vs veh, GMCL1 /// GMCL1P1 / RFU, AEBP2 / Fold change vs veh, AEBP2 / RFU, SNHG1 /// SNORD22 /// SNORD25 /// SNORD26 /// SNORD27 /// SNORD28 /// SNORD29 /// SNORD31 / Fold change vs veh, SNHG1 /// SNORD22 /// SNORD25 /// SNORD26 /// SNORD27 /// SNORD28 /// SNORD29 /// SNORD31 / Fold change (Aza/veh), C12orf56 (ProbeSet 11735607_a_at) / Fold change (ACY-1035/veh), C12orf56 (ProbeSet 11735607_a_at) / Fold change (Aza/veh), FGFR1OP (ProbeSet 11751329_s_at) / Fold change (ACY-1035/veh), FGFR1OP (ProbeSet 11751329_s_at) / Fold change (Aza/veh), VPS36 (ProbeSet 11739960_a_at) / Fold change (ACY-1035/veh), VPS36 (ProbeSet 11739960_a_at) / RFU SYPL1 (11715823_x_at) / Fold change /veh SYPL1 (11715823_x_at) / RFU IGFBP7 (11715501_s_at) / Fold change /veh IGFBP7 (11715501_s_at) / RFU REEP3 (11722064_at) / Fold change /veh REEP3 (11722064_at) / RFU IGLL1 (11728026_x_at) / Fold change /veh IGLL1 (11728026_x_at): dose or concentration left out as unconfirmed
Conditions: MV-4-11 cells, 48 hours

In the case of `Nc1ccc(-c2cccs2)cc1NC(=O)c1ccc2c(c1)cc(C1CC1)n2CCN1CCOCC1` [ACY-1035], the “Fold change /veh CLDN22 /// WWC2 (11732394_at)” value is reported as 1.04.
